Patent US8815934B2, “2-Phenyl-1-[4-(2-Aminoethoxy)-Benzyl]-Indole and estrogen formulations” (Wyeth LLC, priority 1998, dated 2014)

Tests used:
[1] = system: Immature Sprague-Dawley rats; experiment: Rat uterotrophic/antiuterotrophic bioassay; format: in vivo; details: immature female rats, daily ip; for Uterine wt mg 100 uG cmpd + 1uG 17β-estradiol: 100 uG compound + 1 uG 17β-estradiol; for Uterine wt mg 100 uG cmpd: 100 uG compound, wet weight
Experimental: The estrogenic and antiestrogenic properties of the compounds were determined in an immature rat uterotrophic assay (4 day) that (as described previously by L. J. Black and R. L. Goode, Life Sciences, 26, 1453 (1980)). Immature Sprague-Dawley rats (female, 18 days old) were tested in groups of six. […] On day 4 the animals were sacrificed by CO2 asphyxiation and their uteri were removed and stripped of excess lipid, any fluid removed and the wet weight determined. A small section of one horn was submitted for histology and the remainder used to isolate total RNA in order to evaluate complement component 3 gene expression.

estrogen receptor = estrogen receptor (Homo sapiens (Human), UniProt P03372); experiment: 2×VIT ERE infection luciferase assay; format: cell-based; details: for Infection Luciferase Activity, 1 uM + 17β estradiol: 1 uM compound + 1 nM 17β-estradiol (estrogen antagonism); for Infection Luciferase Activity, 1 uM: 1 uM compound alone, percentage of activity as compared to 17β-estradiol
Sequence of estrogen receptor (P03372 whole entry): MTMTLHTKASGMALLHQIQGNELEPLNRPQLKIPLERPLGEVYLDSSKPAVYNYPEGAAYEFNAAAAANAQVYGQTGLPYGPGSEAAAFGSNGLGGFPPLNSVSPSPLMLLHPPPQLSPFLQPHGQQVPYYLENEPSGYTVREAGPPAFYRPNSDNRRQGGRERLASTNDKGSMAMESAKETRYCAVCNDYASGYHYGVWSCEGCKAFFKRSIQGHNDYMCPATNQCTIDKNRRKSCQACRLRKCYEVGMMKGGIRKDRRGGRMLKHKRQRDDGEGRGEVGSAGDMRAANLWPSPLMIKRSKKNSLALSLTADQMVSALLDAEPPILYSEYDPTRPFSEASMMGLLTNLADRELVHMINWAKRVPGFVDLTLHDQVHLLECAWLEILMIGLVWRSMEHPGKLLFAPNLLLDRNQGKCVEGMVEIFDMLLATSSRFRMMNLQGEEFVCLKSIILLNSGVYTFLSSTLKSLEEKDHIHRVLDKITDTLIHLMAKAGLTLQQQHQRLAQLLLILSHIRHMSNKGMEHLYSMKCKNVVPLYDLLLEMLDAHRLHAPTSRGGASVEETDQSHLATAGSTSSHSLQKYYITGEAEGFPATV
Experimental: Chinese Hamster Ovary cells (CHO) which had been stably transfected with the human estrogen receptor were maintained in DMEM+10% fetal bovine serum (FBS). 48 h prior to treatment the growth medium was replaced with DMEM lacking phenol red+10% dextran coated charcoal stripped FBS (treatment medium). Cells were plated at a density of 5000 cells/well in 96-well plates containing 200 μL of medium/well.
Reporter DNA (Promega plasmid pGL2 containing two tandem copies of the vitellogenin ERE in front of the minimal thymidine kinase promoter driving the luciferase gene) was combined with the B-galactosidase expression plasmid pCH110 (Pharmacia) and carrier DNA (pTZ18U) in the following ratio:
20 uL of this mixture was added to each well of cells and remained on the cells for 16 h. […] Each treatment condition was performed on 8 wells (n=8) which were incubated for 24 h prior to the luciferase assay.
After removing the PBS, 25 uL of Promega lysis buffer was added to each well and allowed to stand at room temperature for 15 min, followed by 15 min at −80° C. and 15 min at 37° C. 20 uL of lysate was transferred to an opaque 96 well plate for luciferase activity evaluation and the remaining lysate (5 uL) was used for the B-galactosidase activity evaluation (normalize transfection). The luciferan substrate (Promega) was added in 100 uL aliquots to each well automatically by the luminometer and the light produced (relative light units) was read 10 seconds after addition.
To the remaining 5 uL of lysate 45 uL of PBS was added. Then 50 uL of Promega B-galactosidase 2× assay buffer was added, mixed well and incubated at 37° C. for 1 hour. A plate containing a standard curve (0.1 to 1.5 milliunits in triplicate) was set up for each experimental run. The plates were analyzed on a Molecular Devices spectrophotometric plate reader at 410 nm. The optical densities for the unknown were converted to milliunits of activity by mathematical extrapolation from the standard curve.
The luciferase data was generated as relative light units (RLUs) accumulated during a 10 second measurement and automatically transferred to a JMP (SAS Inc) file where background RLUs were subtracted. The B-galactosidase values were automatically imported into the file and these values were divided into the RLUs to normalize the data. The mean and standard deviations were determined from a n=8 for each treatment. […] These techniques are described by Tzukerman, M. T., Esty, A., Santiso-Mere, D., Danielian, P., Parker, M. G., Stein, R. B., Pike, J. W. and McDonnel, D. P. (1994). Human estrogen receptor transactivational capacity was determined by both cellular and promoter context and mediated by two functionally distinct intramolecular regions (see Molecular Endocrinology, 8:21-30).

SMILES	Uterine wt mg 100 uG cmpd + 1uG 17β-estradiol [1]	Uterine wt mg 100 uG cmpd [1]	Infection Luciferase Activity, 1 uM + 17β estradiol (estrogen receptor)	Infection Luciferase Activity, 1 uM (estrogen receptor)
N#Cc1c(-c2ccc(O)cc2)n(Cc2ccc(OCCN3CCCCCC3)cc2)c2ccc(O)cc12 [No. 139, 1-[4-(2-Azepan-1-yl-ethoxy)-benzyl]-5-hydroxy-2-(4-hydroxy-phenyl)-1H-indole-3-carbonitrile]	45.0 mg	30.4 mg	–	–
Cc1c(-c2ccc(O)cc2)n(Cc2ccc(OCCN3CCC(O)CC3)cc2)c2ccc(O)cc12 [No. 113, 2-(4-Hydroxy-phenyl)-1-{4-[2-(4-hydroxy-piperidin-1-yl)-ethoxy]-benzyl}-3-methyl-1H-indol-5-ol]	–	–	16%	14%
CCCN(CCC)CCOc1ccc(Cn2c(-c3ccc(O)cc3)c(C)c3cc(O)ccc32)cc1 [No. 102, 1-[4-(2-Dipropylamino-ethoxy)-benzyl]-2-(4-hydroxy-phenyl)-3-methyl-1H-indol-5-ol]	–	–	10%	9%
Oc1ccc(-c2c(Cl)c3cc(O)ccc3n2Cc2ccc(OCCN3CCCC3)cc2)cc1 [No. 133, 3-Chloro-2-(4-hydroxy-phenyl)-1-[4-(2-pyrrolidin-1-yl-ethoxy)-benzyl]-1H-indol-5-ol]	–	–	9%	7%
Cc1c(-c2cccc(O)c2)n(Cc2ccc(OCCN3CCCCC3)cc2)c2ccc(O)cc12 [No. 127, 2-(3-Hydroxy-phenyl)-3-methyl-1-[4-(2-piperidin-1-yl-ethoxy)-benzyl]-1H-indol-5-ol]	–	–	−4%	−3%
Cc1c(-c2ccc(O)cc2)n(Cc2ccc(OCCN3CCC(C)CC3)cc2)c2ccc(O)cc12 [No. 110, 2-(4-Hydroxy-phenyl)-3-methyl-1-{4-[2-(4-methyl-piperidin-1-yl)-ethoxy]-benzyl}-1H-indol-5-ol]	–	–	10%	8%
Cc1c(-c2ccc(O)cc2)n(Cc2ccc(OCCN3CCCCC3C)cc2)c2ccc(O)cc12 (stereo not shown) [No. 108, 2-(4-Hydroxy-phenyl)-3-methyl-1-{4-[2-(2-methyl-piperidin-1-yl)-ethoxy]-benzyl}-1H-indol-5-ol]	–	–	10%	11%
Cc1c(-c2ccc(O)cc2)n(Cc2ccc(OCCN3CC4(C)CC3CC(C)(C)C4)cc2)c2ccc(O)cc12 (stereo not shown) [No. 115, 2-(4-Hydroxy-phenyl)-3-methyl-1-{4-[2-(1,3,3-trimethyl-6-aza-bicyclo[3.2.1]oct-6-yl)-ethoxy]-benzyl}-1H-indol-5-ol]	–	–	10%	11%
Cc1c(-c2ccc(O)cc2)n(Cc2ccc(OCCN3CCCC(C)C3)cc2)c2ccc(O)cc12 (stereo not shown) [No. 109, 2-(4-Hydroxy-phenyl)-3-methyl-1-{4-[2-(3-methyl-piperidin-1-yl)-ethoxy]-benzyl}-1H-indol-5-ol]	–	–	5%	6%
Cc1c(-c2ccc(O)cc2)n(Cc2ccc(OCCN3CCCC(C)(C)C3)cc2)c2ccc(O)cc12 [No. 111, 1-{4-[2-(3,3-Dimethyl-piperidin-1-yl)-ethoxy]-benzyl}2-(4-hydroxy-phenyl)-3-methyl-1H-indol-5-ol]	–	–	23%	25%
Cc1c(-c2ccc(O)cc2)n(Cc2ccc(OCCN3CCCC3)cc2)c2ccc(O)cc12 [No. 96, 2-(4-Hydroxy-phenyl)-3-methyl-1-[4-(2-pyrollidin-1-yl-ethoxy)-benzyl]-1H-indol-5-ol]	–	–	8%	12%
Cc1c(-c2ccc(O)cc2)n(Cc2ccc(OCCCN3CCCCC3)cc2)c2ccc(O)cc12 [No. 166, 2-(4-Hydroxy-phenyl)-3-methyl-1-{4-[3-(piperidin-1-yl)-propoxy]-benzyl}-1H-indol-5-ol]	–	–	23%	25%
Cc1c(-c2ccc(O)cc2)n(Cc2ccc(OCCN3CCCCC3)cc2)c2ccc(F)cc12 [No. 94, 4-{5-Fluoro-3-methyl-1-[4-(2-piperidin-1-yl-ethoxy)-benzyl]-1H-indol-2-yl}-phenol]	93.7 mg	28.1 mg	–	–
Cc1c(-c2ccc(O)cc2)n(Cc2ccc(OCCN3CCCCC3)cc2)c2ccc(O)cc12 [No. 97, 2-(4-Hydroxy-phenyl)-3-methyl-1-[4-(2-piperidin-1-yl-ethoxy)-benzyl]-1H-indol-5-ol]	24.3 mg	27.4 mg	–	–
CCN(CC)CCOc1ccc(Cn2c(-c3ccc(O)cc3)c(C)c3cc(O)ccc32)cc1 [No. 101, 2-(4-Hydroxy-phenyl)-3-methyl-1-[4-(2-diethyl-1-yl-ethoxy)-benzyl]-1H-indol-5-ol]	71.0 mg	65.1 mg	–	–
Cc1c(-c2ccc(O)cc2)n(Cc2ccc(OCCN(C)C)cc2)c2ccc(O)cc12 [No. 100, 2-(4-Hydroxy-phenyl)-3-methyl-1-[4-(2-dimethyl-1-yl-ethoxy)-benzyl]-1H-indol-5-ol]	68.7 mg	59.9 mg	–	–
Cc1c(-c2ccccc2)n(Cc2ccc(OCCN3CCCCC3)cc2)c2ccc(O)cc12 [No. 87, 3-Methyl-2-phenyl-1-[4-(2-piperidine-1-yl-ethoxy)-benzyl]-1H-indol-5-ol]	–	–	0%	0%
CCCCN(CCCC)CCOc1ccc(Cn2c(-c3ccc(O)cc3)c(C)c3cc(O)ccc32)cc1 [No. 103, 1-[4-(2-Dibutylamino-ethoxy)-benzyl]-2-(4-hydroxy-phenyl)-3-methyl-1H-indol-5-ol]	–	–	10%	13%
Cc1c(-c2ccc(O)cc2)n(Cc2ccc(OCCN(C(C)C)C(C)C)cc2)c2ccc(O)cc12 [No. 104, 1-[4-(2-Diisopropylamino-ethoxy)-benzyl]-2-(4-hydroxy-phenyl)-3-methyl-1H-indol-5-ol]	–	–	7%	7%
CCCCN(C)CCOc1ccc(Cn2c(-c3ccc(O)cc3)c(C)c3cc(O)ccc32)cc1 [No. 105, 1-{4-[2-(Butyl-methyl-amino)-ethoxy]-benzyl}-2-(4-hydroxy-phenyl)-3-methyl-1H-indol-5-ol]	–	–	5%	5%
CCc1c(-c2ccc(O)cc2)n(Cc2ccc(OCCN3CCCCC3)cc2)c2ccc(O)cc12 [No. 137, 2-(4-Hydroxy-phenyl)-3-ethyl-1-[4-(2-piperidin-1-yl-ethoxy)-benzyl]-1H-indol-5-ol]	–	–	8%	6%
Cc1c(-c2ccccc2)n(Cc2ccc(OCCN3CCCCCC3)cc2)c2ccc(O)cc12 [No. 95, 1-[4-(2-Azepan-1-yl-ethoxy)-benzyl]-3-methyl-2-phenyl-1H-indol-5-ol]	–	–	−4%	−4%
Cc1c(-c2ccc(O)cc2)n(Cc2ccc(OCCN3C[C@@H]4CC[C@H]3C4)cc2)c2ccc(O)cc12 [No. 114, (1S,4R)-1-{4-[2-(2-Aza-bicyclo[2.2.1]hept-2-yl)-ethoxy]-benzyl}-2-(4-hydroxy-phenyl)-3-methyl-1H-indol-5-ol]	–	–	−1%	1%
